Reference: patent publication US9695133B2, “Quinazolinone-based oncogenic-RAS-selective lethal compounds and their use” (THE TRUSTEES OF COLUMBIA UNIVERSITY IN THE CITY OF NEW YORK, priority 2012, dated 2017)

Tested on: HT-1080 cells
Test: Metabolite profiling (LC-MS/MS) upon erastin treatment
Format: cell-based, human
Settings: 5 μg/mL erastin 5 h
Experimental: 2 million HT-1080 cells were seeded in 10 cm culture dishes. […] 4 mL of cold 80% methanol was added to the cell monolayer to extract polar metabolites using a cell scraper. The cell lysate/methanol mixture was transferred to a 15 mL tube and centrifuged at 2,000×g at 4° C. for 10 minutes to pellet debris and proteins. The supernatant was transferred to a new tube and stored at −80° C. for liquid chromatography-mass spectrometry/mass spectrometry (LC-MS/MS) analysis. For lipid extract preparation, 3 mL of cold 100% isopropanol was added to the cell monolayer to scrape out cells. The resulting cell lysate/isopropanol mixture was transferred to a new 15 mL tube and centrifuged at 2,000×g at 4° C. for 10 minutes. The cleared supernatant was transferred to a new tube and stored at −20° C. for LC-MS/MS analysis.
The metabolite extract was subjected to LC-MS/MS analysis to determine the quantity of each metabolite in each sample.

With `CCOc1ccccc1-n1c(C(C)N2CCN(C(=O)COc3ccc(Cl)cc3)CC2)nc2ccccc2c1=O` (stereo not drawn) [erastin] the “2-aminodipate Erastin/DMSO” value was 0.6644, the “2-aminodipate log2 (Erastin/DMSO)” value was −0.59 and the “2′-deoxyadenosine Erastin/DMSO” value was 0.6549. The “2′-deoxyadenosine log2 (Erastin/DMSO)” value was −0.6107, the “2′-deoxycytidine Erastin/DMSO” value was 1.737 and the “2′-deoxycytidine log2 (Erastin/DMSO)” value was 0.7968. The “4-hydroxybenzoate Erastin/DMSO” value was 0.9815, the “4-hydroxybenzoate log2 (Erastin/DMSO)” value was −0.02693 and the “4-pyridoxate Erastin/DMSO” value was 1. The “4-pyridoxate log2 (Erastin/DMSO)” value was 0.0001853, the “5-HIAA (first entry) Erastin/DMSO” value was 0.7283 and the “5-HIAA (first entry) log2 (Erastin/DMSO)” value was −0.4574. For the same compound, the “5-HIAA (second entry) Erastin/DMSO” value was 1.231, the “5-HIAA (second entry) log2 (Erastin/DMSO)” value was 0.2997 and the “5-hydroxytryptophan Erastin/DMSO” value was 0.8725. The “5-hydroxytryptophan log2 (Erastin/DMSO)” value was −0.1967, the “ADMA Erastin/DMSO” value was 0.8585 and the “ADMA log2 (Erastin/DMSO)” value was −0.2201. For the same compound, the “ADMA/SDMA Erastin/DMSO” value was 0.8985, the “ADMA/SDMA log2 (Erastin/DMSO)” value was −0.1543 and the “ADP Erastin/DMSO” value was 0.9616. The “ADP log2 (Erastin/DMSO)” value was −0.05643, the “AMP Erastin/DMSO” value was 1.071 and the “AMP log2 (Erastin/DMSO)” value was 0.09933. The “Anthranilic acid Erastin/DMSO” value was 1.242, the “Anthranilic acid log2 (Erastin/DMSO)” value was 0.3128 and the “C14:0 CE Erastin/DMSO” value was 0.7897. The “C14:0 CE log2 (Erastin/DMSO)” value was −0.3407, the “C14:0 LPC Erastin/DMSO” value was 3.625 and the “C14:0 LPC log2 (Erastin/DMSO)” value was 1.858. The “C14:0 SM Erastin/DMSO” value was 1.062, the “C14:0 SM log2 (Erastin/DMSO)” value was 0.08617 and the “C16:0 CE Erastin/DMSO” value was 0.9643. The “C16:0 CE log2 (Erastin/DMSO)” value was −0.05248, the “C16:0 LPC Erastin/DMSO” value was 3.818 and the “C16:0 LPC log2 (Erastin/DMSO)” value was 1.933. For the same compound, the “C16:0 SM Erastin/DMSO” value was 1.03, the “C16:0 SM log2 (Erastin/DMSO)” value was 0.04281 and the “C16:1 CE Erastin/DMSO” value was 0.9321. For the same compound, the “C16:1 CE log2 (Erastin/DMSO)” value was −0.1015, the “C16:1 LPC Erastin/DMSO” value was 5.386 and the “C16:1 LPC log2 (Erastin/DMSO)” value was 2.429. The “C16:1 SM Erastin/DMSO” value was 0.9808, the “C16:1 SM log2 (Erastin/DMSO)” value was −0.02798 and the “C18:0 CE Erastin/DMSO” value was 1.01. For the same compound, the “C18:0 CE log2 (Erastin/DMSO)” value was 0.01367, the “C18:0 LPC Erastin/DMSO” value was 3.335 and the “C18:0 LPC log2 (Erastin/DMSO)” value was 1.738. For the same compound, the “C18:0 SM Erastin/DMSO” value was 1.018, the “C18:0 SM log2 (Erastin/DMSO)” value was 0.02559 and the “C18:1 CE Erastin/DMSO” value was 0.9198. The “C18:1 CE log2 (Erastin/DMSO)” value was −0.1206, the “C18:1 LPC Erastin/DMSO” value was 3.744 and the “C18:1 LPC log2 (Erastin/DMSO)” value was 1.904. The “C18:1 SM Erastin/DMSO” value was 0.925, the “C18:1 SM log2 (Erastin/DMSO)” value was −0.1125 and the “C18:2 CE Erastin/DMSO” value was 0.9483. The “C18:2 CE log2 (Erastin/DMSO)” value was −0.07651, the “C18:3 CE Erastin/DMSO” value was 0.9277 and the “C18:3 CE log2 (Erastin/DMSO)” value was −0.1083. The “C20:3 CE Erastin/DMSO” value was 0.7864, the “C20:3 CE log2 (Erastin/DMSO)” value was −0.3467 and the “C20:4 CE Erastin/DMSO” value was 0.9141. The “C20:4 CE log2 (Erastin/DMSO)” value was −0.1297, the “C20:4 LPC Erastin/DMSO” value was 8.518 and the “C20:4 LPC log2 (Erastin/DMSO)” value was 3.091. For the same compound, the “C20:5 CE Erastin/DMSO” value was 0.8407, the “C20:5 CE log2 (Erastin/DMSO)” value was −0.2504 and the “C22:0 SM Erastin/DMSO” value was 0.96. For the same compound, the “C22:0 SM log2 (Erastin/DMSO)” value was −0.0589, the “C22:1 SM Erastin/DMSO” value was 0.8374 and the “C22:1 SM log2 (Erastin/DMSO)” value was −0.256. For the same compound, the “C22:6 CE Erastin/DMSO” value was 0.7847, the “C22:6 CE log2 (Erastin/DMSO)” value was −0.3498 and the “C22:6 LPC Erastin/DMSO” value was 8.456. For the same compound, the “C22:6 LPC log2 (Erastin/DMSO)” value was 3.08, the “C24:0 SM Erastin/DMSO” value was 0.9621 and the “C24:0 SM log2 (Erastin/DMSO)” value was −0.05567. For the same compound, the “C24:1 SM Erastin/DMSO” value was 0.8933, the “C24:1 SM log2 (Erastin/DMSO)” value was −0.1627 and the “C30:0 PC Erastin/DMSO” value was 0.8954. The “C30:0 PC log2 (Erastin/DMSO)” value was −0.1594, the “C30:1 PC Erastin/DMSO” value was 1.014 and the “C30:1 PC log2 (Erastin/DMSO)” value was 0.01988. The “C30:2 PC Erastin/DMSO” value was 0.9467, the “C30:2 PC log2 (Erastin/DMSO)” value was −0.07901 and the “C32:0 PC Erastin/DMSO” value was 0.7948. For the same compound, the “C32:0 PC log2 (Erastin/DMSO)” value was −0.3314, the “C32:0 PE Erastin/DMSO” value was 0.9821 and the “C32:0 PE log2 (Erastin/DMSO)” value was −0.0261. The “C32:1 DAG Erastin/DMSO” value was 1.055, the “C32:1 DAG log2 (Erastin/DMSO)” value was 0.07658 and the “C32:1 PC Erastin/DMSO” value was 0.9998. For the same compound, the “C32:1 PC log2 (Erastin/DMSO)” value was −0.0003379, the “C32:1 PE Erastin/DMSO” value was 1.024 and the “C32:1 PE log2 (Erastin/DMSO)” value was 0.03411. For the same compound, the “C32:1 PI Erastin/DMSO” value was 1.261, the “C32:1 PI log2 (Erastin/DMSO)” value was 0.3346 and the “C32:2 PC Erastin/DMSO” value was 1.218. The “C32:2 PC log2 (Erastin/DMSO)” value was 0.2847, the “C32:2 PE Erastin/DMSO” value was 1.018 and the “C32:2 PE log2 (Erastin/DMSO)” value was 0.02554. For the same compound, the “C34:0 PC Erastin/DMSO” value was 0.7975, the “C34:0 PC log2 (Erastin/DMSO)” value was −0.3264 and the “C34:0 PE Erastin/DMSO” value was 0.9533. The “C34:0 PE log2 (Erastin/DMSO)” value was −0.06907, the “C34:1 DAG Erastin/DMSO” value was 0.8823 and the “C34:1 DAG log2 (Erastin/DMSO)” value was −0.1807. For the same compound, the “C34:1 PC Erastin/DMSO” value was 0.8993, the “C34:1 PC log2 (Erastin/DMSO)” value was −0.1531 and the “C34:1 PE Erastin/DMSO” value was 1.04. The “C34:1 PE log2 (Erastin/DMSO)” value was 0.05679, the “C34:1 PI Erastin/DMSO” value was 1.173 and the “C34:1 PI log2 (Erastin/DMSO)” value was 0.2306. The “C34:2 DAG Erastin/DMSO” value was 1.089, the “C34:2 DAG log2 (Erastin/DMSO)” value was 0.1227 and the “C34:2 PC Erastin/DMSO” value was 1.049. For the same compound, the “C34:2 PC log2 (Erastin/DMSO)” value was 0.06833, the “C34:2 PE Erastin/DMSO” value was 0.982 and the “C34:2 PE log2 (Erastin/DMSO)” value was −0.02619. For the same compound, the “C34:2 PI Erastin/DMSO” value was 1.286, the “C34:2 PI log2 (Erastin/DMSO)” value was 0.3633 and the “C34:3 PC Erastin/DMSO” value was 1.134. The “C34:3 PC log2 (Erastin/DMSO)” value was 0.1814, the “C34:4 PC Erastin/DMSO” value was 1.086 and the “C34:4 PC log2 (Erastin/DMSO)” value was 0.119. The “C36:0 PC Erastin/DMSO” value was 0.6501, the “C36:0 PC log2 (Erastin/DMSO)” value was −0.6212 and the “C36:0 PE Erastin/DMSO” value was 0.9538. For the same compound, the “C36:0 PE log2 (Erastin/DMSO)” value was −0.06821, the “C36:0 PI Erastin/DMSO” value was 1.006 and the “C36:0 PI log2 (Erastin/DMSO)” value was 0.009131.
